# From ChEMBL document CHEMBL1132013, “Synthesis, computer modeling and biological evaluation of novel protein kinase C agonists based on a 7-membered lactam moiety” (Bioorg Med Chem Lett, 1999)
# Tests used:
# HL-60 [1] = experiment: Inhibition of HL-60 monocyte cell proliferation; Range = 1-8 uM; format: functional; conditions: Homo sapiens, read-out: ED50 (the source's name)
# [2] = molecular target: T1, Protein kinase C alpha type (Homo sapiens, UniProt P17252); experiment: (§1) Displacement of [3H]PDBu from human recombinant Protein kinase C alpha
# HL-60 [3] = experiment: Inhibition of HL-60 monocyte cell proliferation; Range = 0.3-0.7 uM; format: functional; conditions: Homo sapiens, read-out: ED50 (the source's name)
# [4] = molecular target: T1, Protein kinase C alpha type; experiment: as §1; remark: listed apart in the source
# HL-60 [5] = experiment: Inhibition of HL-60 monocyte cell proliferation; format: functional; conditions: Homo sapiens, read-out: ED50 (the source's name)
EC50 (HL-60 [1]),Ki [2],EC50 (HL-60 [3]),Ki [4],EC50 (HL-60 [5]),Compound
8000 nM,> 500 nM,–,–,–,CC(C)CCCC(C)[C@H]1CC[C@H]2[C@@H]3CC[C@H]4CC(=O)N[C@H](CO)C[C@]4(C)[C@H]3CC[C@]12C (some centres undefined)
8000 nM,> 500 nM,–,–,–,C[C@@]12CCC[C@H]1[C@@H]1CC[C@H]3CC(=O)N[C@H](CO)C[C@]3(C)[C@H]1CC2
8000 nM,> 500 nM,–,–,–,CC(C)CCCC(C)[C@H]1CC[C@H]2[C@@H]3CC[C@H]4CC(=O)N[C@@H](CO)C[C@]4(C)[C@H]3CC[C@]12C (some centres undefined)
–,60 nM,700 nM,80 nM,–,CCCCC1(CCCC)CC[C@H]2CC(=O)N[C@H](CO)C[C@]2(C)C1
–,190 nM,700 nM,–,–,CCCCC1(CCCC)CC[C@H]2CC(=O)N[C@@H](CO)C[C@]2(C)C1
–,17 nM,–,–,150 nM,CCCC[C@@H]1C(=O)N[C@H](CO)C[C@]2(C)CC(CCCC)(CCCC)CC[C@@H]12
–,11 nM,–,–,150 nM,CCCCCCCC[C@@H]1C(=O)N[C@H](CO)C[C@]2(C)CC(CCCC)(CCCC)CC[C@@H]12
8000 nM,> 500 nM,–,–,–,C[C@@]12CCC[C@H]1[C@@H]1CC[C@H]3CC(=O)N[C@@H](CO)C[C@]3(C)[C@H]1CC2

Compound,EC50 (HL-60 [1]),Ki [2],EC50 (HL-60 [3]),Ki [4],EC50 (HL-60 [5])
CCCCC1(CCCC)CC[C@H]2[C@H](C)C(=O)N[C@H](CO)C[C@]2(C)C1,–,21 nM,–,–,150 nM
